Consider 3 compounds from US20240360145A1, “PYRIMIDINE-2,4-DIAMINE DERIVATIVES AS WELL AS PREPARATION METHOD THEREFOR AND USE THEREOF” (LISEN THERAPEUTICS, INC., priority 2022, published 2024).

Series [1] relates to PE052 primary cells. Briefly: Cell viability IC50 (CCK-8), primary cells PE052 from small cell lung cancer pleural effusion. It is filed as cell-based. The settings on record: PE052, CCK-8. The procedure:
(§1) (1) The pleural effusion was poured into a 15 mL or 50 mL of sterilized centrifuge tube for centrifugation. Centrifugation conditions: 800 to 1000 rpm, 5 min.
(§2) (2) The precipitate was resuspended and washed for 2 to 3 times with PBS.
(§3) (3) The cell precipitate was resuspended with complete culture medium (α-MEM medium containing 10% fetal bovine serum and 2% penicillin-streptomycin), and the flocculent matter in the pleural effusion was removed using a sterilized cell sieve.
(§4) (4) The red blood cells in the pleural effusion were removed with lymphocyte separation fluid, and the tumor cells and lymphocyte components were collected. The number of tumor cells was observed under a microscope, and the cells were inoculated.
(§5) (5) After 24 hours, the supernatant was discarded, and fresh culture medium was added for further culture.
(§6) (6) The cell growth status was observed, and it was determined based on the cell status whether the medium was required to be continuously changed to remove blood cells. When the cells grew to a density of 80% to 90%, the cells were preserved.
(§7) (1) Primary cells from lung cancer pleural effusion within 5 generations were cultured to the logarithmic growth phase. […] After centrifugation at room temperature, the supernatant was discarded, and the cell precipitate was resuspended with fresh complete culture medium. After counting, the cells were placed at room temperature for later use. The cells were inoculated into a 384-well plate at a density of 2000 cells/well with a volume of 40 μl/well. The wells at the outermost circle of the plate were not inoculated with cells, and instead, added with sterile water to reduce evaporation of the culture medium.
(§8) (2) After overnight culture of the cells, the medium was discarded, and a fresh medium containing different concentrations of compounds was added at 200 μl/well. The dilution method of the compound was as follows: first the compound with the highest concentration of 10 μM was prepared, and then the compound was diluted for 3 times in sequence. […] At the same time, a blank control group was set up, in which only an equal volume of culture medium was added without adding cells. Five replicate wells were set up for each group. The cells were placed in the incubator for further culture.
(§9) (3) After 72 hours, 8 μl of CCK-8 solution, which was double-diluted with 10 mM PBS, was added to each well, and the cells were shaken and placed in an incubator at 37° C. for further culture for 2 hours.
(§10) (4) The light absorbance value at 450 nm was read using a microplate reader, and the IC50 was calculated according to the absorbance value. The calculation method was the same as above.
(§11) (1) Sample information: PE039, PE052, and PE062 were all primary cell samples from pleural effusion of patients with small cell lung cancer, and LT015 was a primary cell sample from bronchoscopic biopsy of a patient with small cell lung cancer.
(§12) (2) CCK-8 detection was used to detect the IC50 values of different medicaments (compounds).

Series [2] has as its system NCI-H446 cells. Description: Cell viability IC50 (CCK-8), small cell lung cancer cell line H446. In kind it is cell-based. The settings on record: H446, CCK-8. The procedure: (§13) Small cell lung cancer cell lines DMS114, NCI-H1688, NCI-H82, NCI-H146, and NCI-H446 cells were cultured in RPMI-1640 medium containing 10% fetal bovine serum and 1% penicillin-streptomycin. All the cells were cultured in a constant temperature incubator containing 5% CO2 at 37° C.
(§14) Small cell lung cancer is a highly heterogeneous malignant tumor, and its clinical treatment is mainly based on traditional chemotherapy (mainly platinum medicaments and etoposide). In order to study the anti-tumor activity of the compounds of the present disclosure in small cell lung cancer, the CCK-8 method was used to investigate the cell viability IC50 of compound 8 for five small cell lung cancer cell lines.

The test system of series [3] is PE062 primary cells. Briefly: Cell viability IC50 (CCK-8), primary cells PE062 from small cell lung cancer pleural effusion. It is filed as cell-based. Conditions: PE062, CCK-8. The procedure:
as §1, §2, §3, §4, §5, §6, §7, §8, §9, §10, §11, §12

In series [4] the test system is LT015 primary cells. Description: Cell viability IC50 (CCK-8), primary cells LT015 from small cell lung cancer bronchoscopic biopsy. Conditions: LT015, CCK-8. It is filed as cell-based. As for the experimental part: (1) The tissue blocks obtained from the tumor patients were transferred from the preservation solution to the pre-cooled HBSS buffer containing antibiotics, and the tissue blocks were washed for three times with the pre-cooled HBSS buffer.
(2) Tissue was sheared on ice with sterile surgical instruments until no obvious tissue blocks are visible to the naked eye, the tissue fluid was collected into a 15 ml centrifuge tube, and this process takes about 5 to 10 minutes.
(3) Digestive enzymes (collagenase I, collagenase IV and neutral protease being mixed in a ratio of 1:1:1, a concentration of stock solution was 10 mg/ml, diluted with PBS buffer or HBSS buffer, and the use concentration was 1 mg/ml) were added to the centrifuge tube, and after mixing well by pipetting, the centrifuge tube was placed in a 37° C. constant temperature incubator for 1 to 2 hours.
(4) High-glucose medium was added to the centrifuge tube to stop digestion. After mixing well, the cell precipitate was collected by centrifugation, and resuspended with MBM medium (Advanced DMEM-F12+20 ng/ml bFGF+50 ng/ml EGF+1% ITS-X+2% B27+10 μMY-27632+1% PS). The cell suspension was placed in a Matrigel-coated 24-well plate and cultured for 5 to 7 days. When the cell density in the well plate reaches 80-90%, the cells were sub-cultured into a 6 cm cell culture dish, and when they grew to a density of 80% to 90%, the cells were cryopreserved for preservation.
(1) Primary cells from lung cancer pleural effusion within 5 generations were cultured to the logarithmic growth phase. When the confluence reached about 90%, the cells were digested with 0.25% trypsin, and complete culture medium was added to collect the cells. After centrifugation at room temperature, the supernatant was discarded, and the cell precipitate was resuspended with fresh complete culture medium. After counting, the cells were placed at room temperature for later use. The cells were inoculated into a 384-well plate at a density of 2000 cells/well with a volume of 40 μl/well. The wells at the outermost circle of the plate were not inoculated with cells, and instead, added with sterile water to reduce evaporation of the culture medium.
as §8, §9, §10, §11, §12

Series [5] deals with DMS114 cells. Description: Cell viability IC50 (CCK-8), small cell lung cancer cell line DMS114. In kind it is cell-based. Conditions: DMS114, CCK-8. As for the experimental part: as §13, §14
The test system of series [6] is PE043 primary cells. Briefly: Cell viability IC50 (CCK-8), primary cells PE043 from lung adenocarcinoma pleural effusion resistant to EGFR-TKI. The settings on record: read-out: cell viability IC50; PE043, CCK-8.
The subject of series [7] is NCI-H1688 cells. Briefly: Cell viability IC50 (CCK-8), small cell lung cancer cell line H1688. The settings on record: H1688, CCK-8. In kind it is cell-based. As for the experimental part: as §13, §14
The test system of series [8] is NCI-H82 cells. Description: Cell viability IC50 (CCK-8), small cell lung cancer cell line H82. Conditions: H82, CCK-8. It is filed as cell-based. As for the experimental part:
as §13, §14

The test system of series [9] is PE039 primary cells. Briefly: Cell viability IC50 (CCK-8), primary cells PE039 from small cell lung cancer pleural effusion. It is filed as cell-based. The settings on record: PE039, CCK-8. As for the experimental part:
as §1, §2, §3, §4, §5, §6, §7, §8, §9
(4) The light absorbance value at 450 nm was read using a microplate reader, and the IC50 was calculated according to the absorbance value. The calculation method was the same as above. […]

Series [10] concerns NCI-H146 cells. Description: Cell viability IC50 (CCK-8), small cell lung cancer cell line H146. In kind it is cell-based. Conditions: H146, CCK-8. The procedure: as §13, §14
Series [11] relates to small cell lung cancer cell line H446 cells. Briefly: In vivo antitumor effect in mice bearing small cell lung cancer cell line H446 cells (CDX model).
Protocol: H446 cells in the logarithmic growth phase were suspended in PBS solution, and then inoculated subcutaneously in the right forelimb of nude mice. The cell density was about 2×10^8 cells/mL, and each mouse was inoculated with 0.1 mL of the cell suspension, for a total of 80 mice. When the subcutaneous tumor grew to range from 50 mm^3 to 100 mm^3, 40 tumor-bearing mice were randomly divided into groups and numbered, and drug administration began.
(1) Vehicle blank control group: 5% DMSO+20% PEG 300+75% saline (normal saline);
The cycle repeated twice, and no medication for the final 6 days.
All tumor-bearing mice were killed after 20 days.
The subject of series [12] is NCI-H1792 cells. Briefly: Cell viability IC50 (MTT), AMG510-resistant NCI-H1792 cells. It is filed as cell-based. Conditions: Homo sapiens, NCI-H1792 cells (KRAS G12C). The procedure: Non-small cell lung cancer cell lines NCI-H1975, NCI-H1650, and NCI-H1792 were cultured in RPMI-1640 medium containing 10% fetal bovine serum and 1% penicillin-streptomycin. 1% sodium pyruvate was additionally added when culturing NCI-H1975 cells. All the cells were cultured in a constant temperature incubator containing 5% CO2 at 37° C.
(1) The cells were cultured to the logarithmic growth phase. When the confluence reached about 90%, the cells were digested with 0.25% trypsin, and complete medium was added to collect the cells. After centrifugation at room temperature, the supernatant was discarded, and the cell precipitate was resuspended with fresh complete medium. […]
(5) The medium was carefully aspirated off, 100 μl of DMSO was added to dissolve the precipitate formed by the reaction with MTT, shaking and mixing to mix the blue-violet crystals well, and the light absorbance value at 492 nm was read with a microplate reader.
(6) IC50 of the compounds for different cells was calculated based on the light absorption value of each group. Specifically, the absorbance value under treatment with different concentrations of compounds was first subtracted from the absorbance value of the blank well, and then the absorbance value of the 0 μM group was taken as 100% to calculate the cell survival rate after treatment with different concentrations of compounds. […]

Where only a bound is given, the exact number is not on record here.

Consider `N.N.[Cl][Pt][Cl]` [Cisplatin], for which the IC50 was determined as 0.885 µM in [1]; 0.559 µM in [2]; 3.21 µM in [3]; 5.46 µM in series [4]; 2.15 µM in series [5]; 31 µM in series [6]. The IC50 in series [7] stood at 14.1 µM; in series [8], 1.76 µM; in series [9], 11.1 µM; in series [10], 3.89 µM.
In the case of `CN1CCN(Cc2ccc(Nc3ncc(Cl)c(Nc4ccccc4S(=O)(=O)N(C)C)n3)cc2)CC1` [TP-0903], the IC50 came out at 0.21 µM in series [1]; 0.276 µM in [2] (Homo sapiens, NCI-H446); 0.0051 µM in series [3]; 0.0943 µM in series [4]; 0.0951 µM in series [5] (Homo sapiens, DMS-114); 0.534 µM in series [7] (NCI-H1688). Further, the IC50 in series [8] (Homo sapiens, NCI-H82) was determined as 0.035 µM; in series [9], 0.134 µM; in series [10] (Homo sapiens, NCI-H146) it was 1.54 µM. Besides, the “inhibitory effect on tumor volume growth compared with blank control (FIG. 1)” value in series [11] (H446 CDX nude mice, intraperitoneal injection, 20 days) is “no significant inhibitory effect on tumor volume growth”. The animals survived in series [11] (H446 CDX nude mice, intraperitoneal injection, 20 days, compound 8 and TP-0903 15 mg/kg once a day for 13 days, Cisplatin 2.5 mg/kg + Etoposide 4 mg/kg cycles) is 11 of 12. Further, the “body weight changes of nude mice (FIG. 2)” value in [11] (during the drug administration period, recovered rapidly after drug withdrawal) was “no significant decrease in body weight”.
In the case of `C=CC(=O)N1CCN(c2nc(=O)n(-c3c(C)ccnc3C(C)C)c3nc(-c4c(O)cccc4F)c(F)cc23)[C@@H](C)C1` [AMG510], the IC50 in [1], in series [3] and in [12] was greater than 10 µM each time.

One may read the IC50 as the concentration that gives 50% inhibition.
